Values joined by “and” are separate entries in the source; they are usually repeats but may differ in a detail not shown here. Identical values can stand only once. Like-named read-outs stand apart in the source and are kept apart here.
Experiments:
[1] = tested on: chronic morphine-exposed mice; assay: Opioid withdrawal assays in morphine-pelleted mice; conditions: naltrexone 1 mg/kg, counted over 20 minutes
[2] = tested on: morphine antinociceptive effect in mice; assay: Warm-water tail immersion assay, antagonism of morphine antinociception (Example 5); type: in vivo, mouse (Swiss-Webster); conditions: antagonizing morphine 10 mg/kg; s.c.
MOR [3] = molecular target: T1, MOR (Mus musculus, UniProt P42866); conditions: [35S]GTPγS assays
MOR [4] = molecular target: T1, MOR; assay: biochemical; conditions: read-out: MOR [35S]GTPγS Binding % Emax of DAMGO
KOR [5] = molecular target: T2, KOR (Homo sapiens, UniProt P41145); assay: KOR [35S]GTPγS binding assay (Example 5); type: biochemical; conditions: for Emax: read-out: KOR [35S]GTPγS Binding % Emax of U50,488
T2 construct: expressed in transfected cells; host or cells: CHO (Chinese hamster ovary) cell line, membrane preparation
Method: (§1) The KOR full agonist 2-(3,4-dichlorophenyl)-N-methyl-N-[(1R,2R)-2-pyrrolidin-1-ylcyclohexyl]acetamide 17 (U50,488)41 and DOR full agonist 4-[(R)-[(2S,5R)-4-allyl-2,5-dimethylpiperazin-1-yl](3-methoxyphenyl)methyl]-N,N-diethylbenzamide 18 (SNC80)42 were included in the assays as reference compounds for a maximal effect at the KOR and the DOR, respectively.
(§2) The radioligand binding assay and the [^35S]GTPγS binding assay were conducted using monoclonal OR-expressed Chinese hamster ovarian (CHO) cell lines as described previously.^22,29,36,37 Briefly, for the competition binding assay, [^3H]NLX, [^3H]DPN, and [^3H]NTI were used to label the MOR, the KOR, and the DOR, respectively. Aliquots of a membrane protein (30 μg) were incubated with the corresponding radioligand in the presence of different concentrations of the ligand under investigation in TME buffer (50 mM Tris, 3 mM MgCl2, 0.2 mM EGTA, pH 7.7) at 30° C. for 1.5 h. The bound radioactive ligand was separated from the free radioligand by filtration using the Brandel harvester (Biomedical Research & Development Laboratories, MD). […] The potency of the drugs in displacing the specific binding of the radioligand was determined by linear regression analysis of Hill plots. […] The [^35S]GTPγS functional assays were conducted in the same cell membranes used for the receptor binding assays. Membrane proteins (10 μg) were incubated with varying concentrations of compounds, GDP (10 μM) and 0.1 nM [^35S]GTPγS in assay buffer (50 mM Tris, 3 mM MgCl2, 100 mM NaCl, 0.2 mM EGTA, pH 7.7) for 1.5 h at 30° C. Nonspecific binding was determined with 20 μM unlabeled GTPγS.

KOR [6] = molecular target: T2, KOR; assay: Competitive radioligand binding, [3H]diprenorphine, OR-expressed CHO membranes (Examples 5 and 6)
DOR [7] = molecular target: DOR (UniProt P41143); type: binding; set-up: Ki δ; four experiments; other: three experiments; other: SNC80 5 μM; Ki δ
DOR [8] = molecular target: DOR (UniProt P41143); assay: DOR [35S]GTPγS binding assay (Example 5); type: biochemical; set-up: Ki δ; four experiments; other: three experiments; other: SNC80 5 μM; Ki δ
Method: as §1, §2

MOR [9] = molecular target: T1, MOR; assay: Competitive radioligand binding, [3H]naloxone, OR-expressed CHO membranes (Examples 5 and 6); set-up: expressed in transfected cells; host or cells: CHO (Chinese hamster ovary) cell line, membrane preparation; conditions: Table 8; Ki ratio
[10] = molecular target: mu, delta and kappa opioid receptors; conditions: cited from earlier work
[11] = tested on: morphine antinociceptive effect in mice; conditions: antagonizing morphine 10 mg/kg; s.c.; cited from earlier work
[12] = tested on: morphine antinociception in mice; assay: Warm-water tail immersion test, blockade of morphine antinociception (Example 2); type: in vivo, mouse (Swiss Webster); conditions: s.c., 5 min before morphine 10 mg/kg s.c.; 56 °C
patients with OIC = conditions: cited from earlier work
MOR [13] = molecular target: T1, MOR; assay: 35S-GTP[γS]-binding functional assay in MOR expressing CHO cells (Example 2); type: biochemical; set-up: expressed in transfected cells; host or cells: CHO (Chinese hamster ovary) cell line, membrane preparation
Method: Furthermore, these systems express the receptor at high density to provide optimal signal-to-noise ratios in the radioligand and ^35S-GTP[γS] binding assays.
Aliquots of a membrane preparation were incubated with the radioligands in the presence of different concentrations of the drug under investigation at 30° C. for 1 h. […] The potency of the drugs in displacing the specific binding of the radioligand was determined from data using linear regression analysis of Hill plots. The IC50 values will then be determined and corrected to K1 values using the Cheng-Prusoff equation. Functional assays, including ^35S-GTP[γS]-binding assay were conducted in the same cell membranes used for the receptor binding assays.

MOR [14] = molecular target: T1, MOR; assay: [35S]GTPγS functional assay (Example 1); type: biochemical; set-up: expressed in transfected cells; host or cells: CHO (Chinese hamster ovary) cell line, membrane preparation
[15] = read-out: Ki δ; Table 8 (NAQ analogues); four experiments
[16] = read-out: DOR [35S]GTPγS Binding EC50; three experiments

Question: What does the source list for `O=C1CC[C@@]2(O)[C@H]3Cc4ccc(O)c5c4[C@@]2(CCN3CC2CC2)[C@H]1O5` [Naltrexone]?
Answer: escape jumps [1]: 30.0±12.1; wet-dog shakes [1]: 14.8±2.2; AD50 values [2]: 0.006 (0.003-0.014) mg/kg (95% CL)

Question: With `O=C(N[C@H]1CC[C@@]2(O)[C@H]3Cc4ccc(O)c5c4[C@@]2(CCN3CC2CC2)[C@H]1O5)c1cc2cc([N+](=O)[O-])ccc2cn1` [Compound 11, 17-Cyclopropylmethyl-3,14β-dihydroxy-4,5α-epoxy-6α-(6-nitroisoquinoline-3-carboxamido)morphinan] as the molecule, how does the AD50 values [2] read?
Answer: 0.92 (0.51-1.67) mg/kg (95% CL)

Question: What about the “Functional Selectivity δ/μ” value (MOR [3]) of the same molecule?
Answer: 3.4

Question: What about the “Functional Selectivity κ/μ” value (MOR [3]) of the same molecule?
Answer: 2.0

Question: What about the Emax (MOR [4]) of the same molecule?
Answer: 12.5 ± 1.4%

Question: What about the EC50 (KOR [5]) of the same molecule?
Answer: 62.6 ± 10.4 nM

Question: And the Emax (KOR [5])?
Answer: 21.1 ± 0.4%

Question: What about the Ki (KOR [6]) of the same molecule?
Answer: 27.9 ± 2 nM

Question: What about the Ki (DOR [7]; [15]) of the same molecule?
Answer: 94.7 ± 1.1 nM

Question: And the “DOR [35S]GTPγS Binding % Emax of SNC80” value (DOR [8]; SNC80 5 μM)?
Answer: 67.7 ± 2.0%

Question: What about the EC50 (DOR [8]; [16]) of the same molecule?
Answer: 108.1 ± 0.8 nM

Question: And the “Selectivity δ/μ” value (MOR [9])?
Answer: 16

Question: And the “Selectivity κ/μ” value (MOR [9])?
Answer: 4.9

Question: Which “Ki value ratio delta/mu” value [10] does the source give for `COc1cccc2c1[C@]13CCN(CC4CC4)[C@H](C2)[C@]1(OC)CCC(=O)C3` [cyprodime] here?
Answer: ≈ 40

Question: What about the “Ki value ratio kappa/mu” value [10] of the same molecule?
Answer: ≈ 45

Question: For “17-Cyclopropylmethyl-3,14β-dihydroxy-4,5α-epoxy-6α-[(3′-isoquinolyl)acetamido]morphinan [Compound 9]”, which “AD50 values (data taken from Li, et al.)” value [11] is on record?
Answer: 0.45 (0.27-0.78) mg/kg (95% CL)

Question: And the Ki (DOR [7]; Table 8 (NAQ analogues); four experiments; read-out: Ki δ)?
Answer: 162 ± 15 nM

Question: And the Ki (DOR [7]; Table 12 (Example 6); read-out: Ki δ)?
Answer: 162 ± 15 nM

Question: And the “DOR [35S]GTPγS Binding % Emax of SNC80” value (DOR [8]; SNC80 5 μM)?
Answer: 53.5 ± 5.4%

Question: And the EC50 (DOR [8]; three experiments; read-out: DOR [35S]GTPγS Binding EC50)?
Answer: 98.6 ± 23.7 nM

Question: And the “AD50 value for blockade of morphine antinociception” value [12]?
Answer: 0.456 (0.277 to 0.789) mg/kg (95% C.L.)

Question: For `C[N@+]1(CC2CC2)CC[C@]23c4c5ccc(O)c4O[C@H]2C(=O)CC[C@@]3(O)[C@H]1C5` [MNTX, methylnaltrexone], which “efficiency to induce SBM” value (patients with OIC; human, in vivo) is on record?
Answer: ≤ 62%

Question: What about the “patients with laxation within 4 hours after the first dose” value (patients with OIC; two major clinical trials, subcutaneous) of the same molecule?
Answer: 48% and 62%

Question: What about the “Ki value ratio delta/mu” value [10] of the same molecule?
Answer: ≈ 24

Question: And the “Ki value ratio kappa/mu” value [10]?
Answer: 10

Question: With `C[C@@H](NC(=O)[C@@H](N)Cc1ccc(O)cc1)C(=O)NCC(=O)N(C)[C@@H](Cc1ccccc1)C(=O)NCCO` [DAMGO, reference compound] as the molecule, how does the “Emax (% Stim)” value (MOR [13]; n=3) read?
Answer: 366.5 ± 23.0 % Stim

Question: And the “Percent Max of DAMGO” value (MOR [13]; normalized to full agonist DAMGO (3 μM))?
Answer: 100.0 ± 6.2%

Question: What about the Emax (MOR [14]; DAMGO reference) of the same molecule?
Answer: 366±23 % stimulation over basal

Question: For `COc1c(C(=O)N[C@H]2CC[C@@]3(O)[C@H]4Cc5ccc(O)c6c5[C@@]3(CCN4CC3CC3)[C@H]2O6)nc(Cl)c2ccccc12` [Compound 4, 17-Cyclopropylmethyl-3,14β-dihydroxy-4,5α-epoxy-6α-(1-chloro-4-methoxyisoquinoline-3-carboxamido)morphinan], which Emax (MOR [4]) is on record?
Answer: 51 ± 0.4%

Question: What about the EC50 (KOR [5]) of the same molecule?
Answer: 26.4 ± 3.9 nM

Question: What about the Emax (KOR [5]) of the same molecule?
Answer: 7.1 ± 0.5%

Question: And the Ki (KOR [6])?
Answer: 22.2 ± 2.1 nM

Question: And the Ki (DOR [7]; [15])?
Answer: 33.9 ± 0.5 nM

Question: And the “DOR [35S]GTPγS Binding % Emax of SNC80” value (DOR [8]; SNC80 5 μM)?
Answer: 54.8 ± 0.1%

Question: What about the EC50 (DOR [8]; [16]) of the same molecule?
Answer: 32.6 ± 5.1 nM

Question: Which “Percent Max of DAMGO” value (MOR [14]; Emax of compound vs Emax of DAMGO (normalized to 100%)) does the source give for `C[C@@H](O)[C@H](NC(=O)[C@H]1NC(=O)[C@H]([C@@H](C)O)NC(=O)[C@H](CCCNC(=N)N)NC(=O)[C@@H](Cc2c[nH]c3ccccc23)NC(=O)[C@H](Cc2ccc(O)cc2)NC(=O)[C@@H](NC(=O)[C@H](N)Cc2ccccc2)CSSC1(C)C)C(N)=O` [CTAP, D-Phe-Cys-Tyr-D-Trp-Arg-Thr-Pen-Thr-NH2] here?
Answer: 0.00%

— patent US8980908B2, “Non-peptidyl, potent, and selective mu opioid receptor antagonists and their use in treating opioid addiction and opioid induced constipation” (Virginia Commonwealth University, priority 2009, dated 2015)
